In patent US20070117776A1, “Low Dose Therapy Of DNA Methylation Inhibitors” (priority 2005, published 2007):

System: intermediate and high-risk MDS and CMML
Test: Randomized low dose decitabine schedules in patients with hematological disorders
Assay type: in vivo, human
Experimental: Patients with intermediate and high-risk MDS and CMML were randomized to one of three decitabine schedules: (1) 20 mg/m^2 infused intravenously over 1 hour, once daily, for five days; (2) 10 mg/m^2, infused intravenously over one hour, once daily, for ten days; (3) 10 mg/m^2, injected subcutaneously twice a day, for five days.
Decitabine was supplied as a lyophilized powder, 50 mg in 20 mL glass vials, for reconstitution with 10 mL sterile water (Supergen, Inc., Dublin Calif., through Pharmachemie B.V., Haarlem, The Netherlands). The reconstituted stock solution contained 5 mg/mL decitabine, 6.8 mg KH2PO4, and approximately 1.1 mg/mL NaOH. The reconstituted solution was further diluted for intravenous infusion or subcutaneous injection with pharmaceutically acceptable cold infusion fluids (physiological saline, glucose-saline, lactated Ringer's solution). The time delay between preparation of the infusion/injection solution was kept as short as practicable, with refrigerated storage prior to administration not to exceed 4-5 hours.
Patients received one course of treatment (as defined above) every 28 days. […] Patients were allowed 40,000 units of erythropoietin weekly for anemia, or GCSF if needed.
The age of 92 treated patients ranged from 31-90 years (median: 65, with 66% of patients being older than 60); according to IPSS prognostic scores, 25% of patients were classified as intermediate-1, 38% as intermediate-2, 19% as high risk, and 17% as having chronic myelomonocytic leukemia (CMML). […] Twenty-seven patients had had prior erythropoietin; 17 had had prior GCSF, and 22 had had other prior therapies.

[1] = all three schedules, 92 treated patients

## Nc1ncn([C@H]2C[C@H](O)[C@@H](CO)O2)c(=O)n1 [Decitabine, 4-amino-1-(2-deoxy-β-D-erythro-pentofuranosyl)-1,3,5-triazin-2(1H)-one]
5-day IV arm versus the other arms, after 55 patients were randomized
  comparison of schedules: statistically superior
5-day IV courses: 20 mg/m^2 infused intravenously over 1 hour, once daily, for five days
  complete remission (patients with CR/patients treated): 24/57
5-day subcutaneous courses: 10 mg/m^2 injected subcutaneously twice a day, for five days
  complete remission (patients with CR/patients treated): 4/14
10-day IV cohort (10 mg/m^2 over one hour, once daily, ten days) compared with the other schedules
  myelosuppression: more myelosuppression
10-day IV courses: 10 mg/m^2 infused intravenously over one hour, once daily, for ten days
  complete remission (patients with CR/patients treated): 4/17
[1]
  CB combined with bone marrow CR: Thirteen
  Partial remission (PR): seven
  clinical benefit (CB): Sixteen
  complete remission (CR): 32 patients
One course every 28 days
  number of treatment courses in patients who achieved CR (median): 3
  number of treatment courses in patients who achieved CR (range): one to six
Patients who received at least one course of treatment
  patients who showed a response (overall): 76%
